Test results reported in patent US7067500B2, “Betaines as adjuvants to susceptibility testing and antimicrobial therapy” (priority 1997, dated 2006).
Where “and” joins values, the source holds several entries; their conditions need not be identical. Equal entries are not always repeated. Entries after “also recorded” stand apart in the source; their conditions may differ. Structures can show the parent of a compound that is named as a salt.

Columns and labels:
[1] = system: M. tuberculosis isolate 571/573-BAL; assay: Planting in lecithin at low inocula, BACTEC 12B growth curves; format: cell-based, Mycobacterium tuberculosis; settings: CB-18 (17 μg/ml) combined with P/caz; inocula 165±54, 33±11 and 8±3 cfu
Source text: In this experiment the 571/573-BAL isolate was cultivated on 7H11-selective media, serially diluted in NALC/citrate to approximately 1,000×. In an attempt to examine how the inoculum impacted the results of this assay three different stocks were manufactured, one series in buffer and one series in CB-18. […] The planting solutions were manufactured by mixing these three stocks 1:1 with either buffer or a buffered solution of lecithin (Sigma, St. Louis, Mo.; Cat.#: P 5394 (7.5% lecithin was made up as a 100× concentrate in 100% ethanol (3 grams in 40 mls) and diluted in the Tris buffer of Example 1 immediately prior to use)). The final dilutions of three different planting solutions were approximately 5000×, 25,000×, and 100,000×. The final concentration of CB-18 and lecithin in the appropriate planting solutions was approximately 0.5 mM. […] The final concentration of both lecithin and CB-18 during incubation was approximately 17 μg/ml.
Aliquots of the three stocks (i.e., 2,500×, 12,500× and 50,000×) were also taken for quantitative culture by plating on 7H10 plates (Becton Dickinson, Cockeysville, Md.). […] FIG. 5A presents the 5,000× series planted in either buffer or buffer containing lecithin, and FIG. 5B presents the 5,000× series planted in CB-18 or CB-18 combined with lecithin. FIG. 5C presents the 25,000× series planted in either buffer or buffer containing lecithin, and FIG. 5D presents the 25,000× series planted in CB-18 or CB-18 combined with lecithin. FIG. 5E presents the 100,000× series planted in either buffer or buffer containing lecithin, and FIG. 5F presents the 100,000× series planted in CB-18 or CB-18 combined with lecithin.

[2] = system: M. tuberculosis isolates ATCC 27294 and 571/573-BAL; assay: CB-18 and TMA-18 comparison, BACTEC 12B growth curves; format: cell-based, Mycobacterium tuberculosis
Procedure: If the mechanism of CB-18's action was similar to that of the quaternary salts (i.e., generally deleterious), then some delay would be anticipated. For example, if the CB-18 effect was a consequence of the surface active property of the detergent, then disruption of cellular function would not only have nonspecific long term consequences, but would also be independent of the isolate. In an effort to examine the similarity in the mechanism, CB-18 was assayed in parallel with trimethyloctadecylammonium bromide (TMA-18 (Aldrich, Milwaukee, Wis., Cat.# 35,924-6): made as a 100× stock in 1:1, water:isopropanol similar to that described for CB-18 in Example 1). The experimental design is outlined in FIG. 6.
In this experiment both ATCC 27294 and 571/573-BAL were cultivated on 7H11-selective media, and then serially diluted in NALC/citrate to 10,000×. The planting solution (i.e., the final dilution (50,000×)) was manufactured by diluting into either buffer, 0.5 mM CB-18, or 0.1 mM TMA-18 (all concentrations represent the final detergent concentration in the planting solution). […] The final concentration of CB-18 during incubation was approximately 17 μg/ml. The final concentration of TMA-18 during incubation was approximately 3.4 μg/ml. […] FIGS. 7A–7C show one experiment wherein ATCC 27294 cells were planted in the different solutions described above, and FIGS. 8A–8C show a parallel experiment wherein 571/573-BAL cells were planted in the same series.

[3] = system: M. tuberculosis complex isolates ATCC 27294 and 571/573-BAL; assay: CB-18 titration, BACTEC 12B growth curves; format: cell-based, Mycobacterium tuberculosis; settings: for CB-18 concentration at which growth was completely shut down / CB-18 concentration at which growth was impacted to a minor degree: absence of antibiotics
[4] = system: M. avium complex isolates ATCC 25291 and 802-BAL; assay: CB-18 titration, BACTEC 12B growth curves; format: cell-based; settings: MAC isolate 802-BAL; CB-18 alone (7–27 μg/ml tested)
[5] = system: M. fortuitum complex isolates ATCC 6841 and 495-JHH; assay: CB-18 titration, BACTEC 12B growth curves; format: cell-based; settings: M. fortuitum 495-JHH
[6] = system: M. tuberculosis isolate 571/573-BAL; assay: Detergent screen for induced susceptibility, BACTEC 12B growth curves; format: cell-based, Mycobacterium tuberculosis; settings: for effect on growth characteristics: 571/573-BAL
[7] = system: M. tuberculosis isolates ATCC 27294 and 571/573-BAL; assay: Mycobacterial susceptibility testing (proportion method criteria) with CB-18 and P-cax; format: cell-based, Mycobacterium tuberculosis
[8] = system: M. tuberculosis isolates ATCC 27294 and 571/573-BAL; assay: Processing in CB-18 vs. planting in CB-18, BACTEC 12B growth curves
[9] = system: M. tuberculosis isolates (Table 8); assay: MTB isolates vs. antibiotic screen in the presence and absence of CB-18; settings: CB-18 17 μg/ml
[10] = ATCC 27294, presence of antibiotics

Compound: CCCCCCCCCCCCCCCCCC[N+](C)(C)CCCC(=O)[O-] [CB-18, N-(3-carboxypropyl)-N,N-dimethyl-1-octadecanaminium, inner salt]
- culture result of replicate bottles [1]: negative
- effect on growth ([2]; 571/573-BAL, 17 μg/ml CB-18, R.F., PANTA and P/cax): delays in all conditions became obvious
- effect on growth ([2]; 571/573-BAL, 17 μg/ml CB-18 with P/cax): dramatic delay
- effect on growth ([2]; ATCC 27294, 17 μg/ml CB-18 in PANTA alone): minor delays
- effect on growth ([2]; ATCC 27294, 17 μg/ml CB-18 with P/cax): significant delays
- CB-18 concentration at which the isolate was viable ([3]; 571/573-BAL, CB-18 alone): 13 µg/mL
- CB-18 concentration at which growth was completely shut down ([3]; 571/573-BAL): 27 µg/mL
- CB-18 concentration at which growth was impacted to a minor degree ([3]; 571/573-BAL): 13 µg/mL
- CB-18 concentration at which growth was absent ([3]; 571/573-BAL, presence of antibiotics): 13 µg/mL
- CB-18 concentration at which growth was completely shut down ([3]; ATCC 27294): 54 µg/mL
- CB-18 concentration at which growth was impacted to a minor degree ([3]; ATCC 27294): 27 µg/mL
- CB-18 concentration at which growth was affected to a minor degree [3, 10]: 13 µg/mL
- CB-18 concentration at which growth was nonexistent [3, 10]: 27 µg/mL
- CB-18 concentration causing no alteration in growth ([3]; ATCC 27294 and 571/573-BAL, absence of antibiotics (FIGS. 10A and 11A)): 3 to 7 µg/mL
- CB-18 concentration at which viability falls off [4]: not affected at the test concentrations; also recorded: Viability is unaffected at levels tested
- CB-18 concentration at which the isolate was viable / able to grow to some degree ([5]; CB-18 alone): 109 µg/mL
- CB-18 concentration at which growth was affected to some degree ([5]; combined with cefoxitin): 13 µg/mL
- CB-18 concentration at which growth was completely inhibited ([5]; combined with cefoxitin): 27 µg/mL
- effect on growth characteristics ([6]; CB-18 (17 μg/ml) combined with antibiotics (PANTA, P/cax)): synergistically deleterious
- effect on growth characteristics ([6]; CB-18 alone (17 μg/ml, R.F.)): had an impact on the growth characteristics
- CB-18 effect in the methods of the invention ([6]; carboxybetaines tested): show the CB-18 effect
- CB-18 concentration at which the isolate would have been reported as susceptible ([7]; 571/573-BAL, 10×-dilution (111,000 ± 17,900 cfu), in the presence of P-cax): 60 µg/mL and 30 µg/mL
- CB-18 concentration at which the isolate would have been reported as susceptible ([7]; 571/573-BAL, 100×-dilution (11,100 ± 1,790 cfu), in the presence of P-cax): 15 µg/mL
- CB-18 concentration at which the isolate would have been reported as susceptible ([7]; ATCC 27294, 10×-dilution (62,800 ± 5,700 cfu), in the presence of P-cax): 60 µg/mL
- CB-18 concentration at which the isolate would have been deemed susceptible ([7]; ATCC 27294, 100×-dilution (6,280 ± 570 cfu), in the presence of P-cax): 30 µg/mL
- growth of isolates ([7]; both isolates, high input (>1×10^5 cfu), 30 μg/ml CB-18): grew unimpeded during the first week
- effect on growth characteristics ([8]; 571/573-BAL, 90 minute exposure to CB-18 at 383 μg/ml, planted in buffer): no apparent effect on growth characteristics
- CB-18 concentration in the culture bottle at which growth was unimpeded ([8]; 571/573-BAL, processed in CB-18, then diluted): < 1 µg/mL
- impact on growth characteristics ([8]; ATCC 27294, processed in CB-18 (383 μg/ml) and/or planted in CB-18 (17 μg/ml final), PANTA or P/caz): generally unaffected
- post antibiotic effect ([8]; cells processed in CB-18 but planted in buffer): no post antibiotic effect; also recorded: no “post antibiotic effect”
- CB-18 induced sensitivity to antibiotics tested ([9]; 040-TBR): affected by CB-18 to some degree; also recorded: Minor CB-18 induced sensitivity to most antibiotics
- effect of CB-18 on cax sensitivity (degree of exacerbation) ([9]; 040-TBR, P/cax): significantly affected by the presence of CB-18; also recorded: tested, however, cax sensitivity significantly
- CB-18 induced sensitivity to antibiotics tested ([9]; 52-96-BOL): affected by CB-18 to some degree; also recorded: Minor CB-18 induced sensitivity to most antibiotics
- effect of CB-18 on cax sensitivity (degree of exacerbation) ([9]; 52-96-BOL, P/cax): significantly affected by the presence of CB-18; also recorded: tested, however, cax sensitivity significantly
- CB-18 induced sensitivity to antibiotics tested ([9]; 57-96-BOL (MDR)): exacerbated in the presence of CB-18; also recorded: moderate CB-18 induced sensitivity to most
- effect of CB-18 on cax sensitivity ([9]; 061-TBR, P/cax): exacerbated by CB-18. Strain is INH resistant
- CB-18 induced sensitivity to antibiotics tested ([9]; 512-JHH): Minor CB-18 induced sensitivity to most antibiotics
- CB-18 induced sensitivity to antibiotics tested ([9]; 535-BAL): unaffected by CB-18 at this concentration
- effect of CB-18 on cax sensitivity ([9]; 535-BAL, P/cax): cax sensitivity was independent of CB-18
- CB-18 induced sensitivity to antibiotics tested ([9]; 538-JHH): Minor CB-18 induced sensitivity to most antibiotics
- CB-18 induced sensitivity to antibiotics tested ([9]; 571-BAL): remarkable induction of susceptibility for all drugs tested; also recorded: Dramatic CB-18 induced sensitivity
- CB-18 induced sensitivity to antibiotics tested ([9]; 573-BAL): remarkable induction of susceptibility for all drugs tested; also recorded: Dramatic CB-18 induced sensitivity
- effect of CB-18 on cax sensitivity ([9]; 896-BAL, P/cax): slightly exacerbated by CB-18. Strain is multi
- effect of CB-18 on cax sensitivity ([9]; ATCC 27294, P/cax (ceftriaxone 8 μg/ml)): minor delays; also recorded: exacerbated by CB-18
- CB-18 induced sensitivity to antibiotics tested ([9]; ATCC 27294, PANTA, P/caz, P/cfp, P/cax, P/cft): little or no difference; also recorded: Minimal, if any, CB-18 induced sensitivity to
